The subject of data set [1] is mutated form of PCSK7 3′-UTR. The experiment in a line: Luciferase reporter assay, miRNA target site-deleted PCSK7 3′-UTR, HEK293T cells. It is filed as cell-based, human. An excerpt:
The interactions between the miRNAs and their probable targets on PCSK7 were explored by cloning the potential target regions in psiCHECK-2™ (Promega, USA), a luciferase reporter vector. In psiCHECK-2™, hRluc, the Renilla luciferase gene, is located upstream of the target regions of interest cloned into the psiCHECK-2™ vector downstream of the Renilla gene. The region corresponding to the 3′-UTR of PCSK7 (926-nt sequences in length) that constituted the predicted miRNA response elements was PCR-amplified and cloned downstream of the Renilla luciferase gene in the psiCHECK-2™ vector (Promega, USA). For the confirmation of whether miRNA response elements (miRNA target sites) on the 3′-UTR of PCSK7 were active and had direct interactions with the miRNAs, different mutants (plasmids) were constructed via splicing by over-hang-extension (SOEing) PCR. For miR-125a-5p and miR-143-3p, each of which has two miRNA response elements on PCSK7 3′-UTR, three different mutant constructs were built. Two constructs were made by deleting a putative miRNA target site, and the third one was made by omitting both putative miRNA target sites in the 3′-UTR sequence of PCSK7. In the miR-409-3p mutant construct, a putative miRNA target site was deleted from the 3′-UTR sequence.
The HEK293T cells were co-transfected through the application of the wild-type psiCHECK-2, the wild-type PCSK7 3′-UTR, the mutant PCSK7 3′-UTR, and the miR-overexpressing vectors so that the direct interactions of the nominated miRNAs with PCSK7 3′-UTR could be investigated. In brief, 150 ng of the wild-type or mutated 3′-UTR constructs and 300 ng of the miRNA-expressing vectors were co-transfected in HEK293T-cultured 48-well plates using FuGENE™ (Invitrogen, USA). Additionally, the psiCHECK-2 and pEGFP-C1 mock vectors were transfected and utilized as controls for luciferase assay and transfection, respectively. Transfection efficiency was monitored by fluorescent microscopy (Nikon TE2000S, Japan) 36 hours following the procedure.
The PsiCHECK-2 reporter construct plasmid contained the Renilla luciferase gene upstream of PCSK7 3′-UTR and an independent firefly luciferase gene as an internal control for normalization. Forty-eight hours after HEK293T co-transfection, the luciferase reporter assay was carried out employing the Dual-Luciferase Reporter Assay System (Promega, USA) with a luminometer (Titertek-Berthold, Germany) in accordance with the manufacturer's protocol. Each sample was performed in triplicate, and the experiment was repeated at least three biological times. In short, a lysis buffer was added to each well after the removal of the media of the cell. Then, LARII Reagent was added, and after 20 minutes, the firefly luciferase activity was measured as a control. Afterward, Renilla activity was determined using Stop & Glo Reagent. The relative luciferase activity was calculated using the following formula: ΔFold Activity of Luciferase (Renilla/Firefly)=Average Renilla/Firefly from Samples A/B.
A luciferase reporter assay further confirmed that miR-125a-5p, miR-143-3p, and miR-409-3p directly targeted the 3′-UTR of the PCSK7 transcript since the negative regulatory effect was lost upon the deletion of the miRNA target sites (miR-125a-5p, miR-143-3p, and miR-409-3p) on the 3′-UTR of the PCSK7 reporter plasmid (FIGS. 28A-B). In this regard, three different mutated miR plasmids were constructed for both miR-125a-5p and miR-143-3p. Single-target sites of each miRNA were omitted individually in two separate plasmids, and the two putative binding sites of the miRNAs were deleted in the other plasmid.

Data set [2] addresses T1, secretory short N-terminal fragment of apoB (s-apoB; aa 1-965), P04114.
T1 chain: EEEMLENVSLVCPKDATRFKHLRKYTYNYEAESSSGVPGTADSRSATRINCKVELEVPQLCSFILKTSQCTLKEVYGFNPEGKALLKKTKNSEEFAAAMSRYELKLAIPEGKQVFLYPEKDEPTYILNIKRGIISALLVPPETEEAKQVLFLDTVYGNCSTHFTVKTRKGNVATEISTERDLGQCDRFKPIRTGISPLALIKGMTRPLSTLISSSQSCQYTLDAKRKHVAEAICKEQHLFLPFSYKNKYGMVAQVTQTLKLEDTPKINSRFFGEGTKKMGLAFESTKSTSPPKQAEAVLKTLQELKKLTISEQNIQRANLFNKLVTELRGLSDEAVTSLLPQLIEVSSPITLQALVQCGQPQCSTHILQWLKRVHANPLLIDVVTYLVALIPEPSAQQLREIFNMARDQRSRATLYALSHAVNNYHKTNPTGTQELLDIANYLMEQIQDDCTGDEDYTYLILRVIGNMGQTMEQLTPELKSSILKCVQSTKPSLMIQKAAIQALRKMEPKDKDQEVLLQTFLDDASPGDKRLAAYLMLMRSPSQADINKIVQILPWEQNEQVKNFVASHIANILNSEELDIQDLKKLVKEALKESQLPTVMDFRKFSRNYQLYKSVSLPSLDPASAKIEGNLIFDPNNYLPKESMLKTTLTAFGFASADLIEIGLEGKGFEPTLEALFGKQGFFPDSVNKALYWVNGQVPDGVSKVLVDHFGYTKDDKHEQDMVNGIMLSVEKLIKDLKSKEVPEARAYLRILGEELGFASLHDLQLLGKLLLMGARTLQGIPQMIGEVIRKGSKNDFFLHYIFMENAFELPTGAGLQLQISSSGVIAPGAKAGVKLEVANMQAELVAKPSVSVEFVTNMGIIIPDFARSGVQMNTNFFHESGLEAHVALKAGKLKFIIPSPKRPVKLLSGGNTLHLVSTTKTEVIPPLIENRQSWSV

We go through five molecules from patent US20250129370A1, “METHOD FOR REDUCING HEPATIC TRIGLYCERIDES” (ADAERATA, LIMITED PARTNERSHIP, priority 2022, published 2025).

With “miR-143-3p: miRNA with two target sites in the PCSK7 3′-UTR, overexpressed from precursor vector (UGAGAUGAAGCACUGUAGCUC; miRNA expressed from a precursor vector, further chemistry not given here)”, the relative luciferase activity result in data set [1] (Mut-a, deletion of the first target site) is reported as “considerably diminished”; in data set [1] (Mut-a,b, deletion of both miRNA target sites), “no significant effect”; in data set [1] (Mut-b, deletion of the second target site), “considerably diminished”. Regarding “miR-409-3p: miRNA with one target site in the PCSK7 3′-UTR, overexpressed from precursor vector (GAAUGUUGCUCGGUGAACCCCU; miRNA expressed from a precursor vector, further chemistry not given here)”, the luciferase activity result in data set [1] (only putative target site of miR-409-3p absent) is listed as “did not lead to a reduction”.

B1: human PC7 (overexpressed in IHH cells) (protein)
chain: SVHFNDPKYPQQWHLNNRRSPGRDINVTGVWERNVTGRGVTVVVVDDGVEHTIQDIAPNYSPEGSYDLNSNDPDPMPHPDVENGNHHGTRCAGEIAAVPNNSFCAVGVAYGSRIAGIRVLDGPLTDSMEAVAFNKHYQINDIYSCSWGPDDDGKTVDGPHQLGKAALQHGVIAGRQGFGSIFVVASGNGGQHNDNCNYDGYANSIYTVTIGAVDEEGRMPFYAEECASMLAVTFSGGDKMLRSIVTTDWDLQKGTGCTEGHTGTSAAAPLAAGMIALMLQVRPCLTWRDVQHIIVFTATRYEDRRAEWVTNEAGFSHSHQHGFGLLNAWRLVNAAKIWTSVPYLASYVSPVLKENKAIPQSPRSLEVLWNVSRMDLEMSGLKTLEHVAVTVSITHPRRGSLELKLFCPSGMMSLIGAPRSMDSDPNGFNDWTFSTVRCWGERARGTYRLVIRDVGDESFQVGILRQWQLTLYGSVWSAVDIRDRQRLLESAMSGKYLHDDFALPCPPGLKIPEEDGYTITPNTLKTLVLVGCFTVFWTVYYMLEVYLSQRNVASNQVCRSGPCHWPHRSRKAKEEGTELESVPLCSSKDPDEVETESRGPPTTSDLLAPDLLEQGDWSLSQNKSALDCPHQHLDVPHGKEEQIC
As for B1, the “secretion of s-apoB (apoB21) into the medium, Western blot” value in data set [2] is “overexpression of PC7 enhanced the secretion of s-apoB (apoB21)”.

B2: rat PC7 (protein)
chain: SIHFNDPKYPQQWHLNNRRSPGRDINVTGVWERNVTGRGVTVVVVDDGVEHTVQDIAPNYSPEGSYDLNSNDPDPMPHPDEENGNHHGTRCAGEIAAVPNNSFCAVGVAYGSRIAGIRVLDGPLTDSMEAVAFNKHYQINDIYSCSWGPDDDGKTVDGPHQLGKAALQHGVMAGRQGFGSIFVVASGNGGQHNDNCNYDGYANSIYTVTIGAVDEEGRMPFYAEECASMLAVTFSGGDKMLRSIVTTDWDLQKGTGCTEGHTGTSAAAPLAAGMIALMLQVRPCLTWRDVQHIIVFTATQYEDHRADWLTNEAGFSHSHQHGFGLLNAWRLVNAAKIWTSVPYLASYVSPMLKENKAVPRSPHSLEVLWNVSRTDLEMSGLKTLEHVAVTVSITHPRRGSLELKLFCPSGMMSLIGAPRSMDSDPNGFNDWTFSTVRCWGERARGVYRLVIRDVGDEPLQVGILQQWQLTLYGSTWSPVDIKDRQSLLESAMSGKYLHDDFTLPCPPGLKIPEEDGYSITPNTLKTLVLVGCFSVFWTIYYMLEVCLSQRSKASTHGCRRGCCPWPPQSQNSKEVGTALESMPLCSSKDLDGVDSEHGDCTTASSLLAPELLGEADWSLSQNSKSDLDCPPHQPPDLKDGQIC
For B2, the “secretion of s-apoB (apo21), Western blot” value in data set [2] is reported as “rat PC7 (rPC7) also enhanced by ~2-fold the secretion of s-apoB (apo21)”.

B3: rat PC7 soluble-KDEL variant (retained in the ER) (protein)
chain: SIHFNDPKYPQQWHLNNRRSPGRDINVTGVWERNVTGRGVTVVVVDDGVEHTVQDIAPNYSPEGSYDLNSNDPDPMPHPDEENGNHHGTRCAGEIAAVPNNSFCAVGVAYGSRIAGIRVLDGPLTDSMEAVAFNKHYQINDIYSCSWGPDDDGKTVDGPHQLGKAALQHGVMAGRQGFGSIFVVASGNGGQHNDNCNYDGYANSIYTVTIGAVDEEGRMPFYAEECASMLAVTFSGGDKMLRSIVTTDWDLQKGTGCTEGHTGTSAAAPLAAGMIALMLQVRPCLTWRDVQHIIVFTATQYEDHRADWLTNEAGFSHSHQHGFGLLNAWRLVNAAKIWTSVPYLASYVSPMLKENKAVPRSPHSLEVLWNVSRTDLEMSGLKTLEHVAVTVSITHPRRGSLELKLFCPSGMMSLIGAPRSMDSDPNGFNDWTFSTVRCWGERARGVYRLVIRDVGDEPLQVGILQQWQLTLYGSTWSPVDIKDRQSLLESAMSGKYLHDDFTLPCPPGLKIPEEDGYSITPNTLKTKDEL
As for B3, the “secretion of s-apoB (apo21) compared to rPC7, Western blot” value in data set [2] is “rPC7-KDEL significantly reduced (~30%) s-apoB (apo21) secretion compared to rPC7”.
